Each compound was assayed on HIV (assay: Table 1 IC50 of the examples (assay method not given; patent concerns inhibiting HIV replication)). Details: Human immunodeficiency virus 1.
Format: cell-based

Row | Structure (SMILES) | IC50
1 | Cc1cc2c(c(-c3cc(F)c4c(c3C)CCCO4)c1[C@H](OC(C)(C)C)C(=O)O)CCN2C(=O)C1CCCC1 (atropisomer, axis not shown) [Example 54, (S)-2-(tert-Butoxy)-2-((R)-1-(cyclopentanecarbonyl)-4-(8-fluoro-5-methylchroman-6-yl)-6-methylindolin-5-yl)acetic acid] | 12 nM
2 | COc1ccc(C(=O)N2CCc3c2cc(C)c([C@H](OC(C)(C)C)C(=O)O)c3-c2cc(C)c3c(c2C)CCCO3)cc1C (atropisomer, axis not shown) [Example 194, (S)-2-(tert-Butoxy)-2-((R)-4-(5,8-dimethylchroman-6-yl)-1-(4-methoxy-3-methylbenzoyl)-6-methylindolin-5-yl)acetic acid] | 43 nM
3 | Cc1cc2c(c(-c3cc(F)c4c(c3C)CCCO4)c1[C@H](OC(C)(C)C)C(=O)O)CCN2C(=O)c1cc(F)ccc1Cl (atropisomer, axis not shown) [Example 150, (S)-2-(tert-Butoxy)-2-((R)-1-(2-chloro-5-fluorobenzoyl)-4-(8-fluoro-5-methylchroman-6-yl)-6-methylindolin-5-yl)acetic acid] | 8 nM
4 | Cc1cc2c(c(-c3cc(F)c4c(c3C)CCCO4)c1[C@H](OC(C)(C)C)C(=O)O)CCN2C(=O)c1ccc(Cl)c(C(F)(F)F)c1 (atropisomer, axis not shown) [Example 148, (S)-2-(tert-Butoxy)-2-((R)-1-(4-chloro-3-(trifluoromethyl)benzoyl)-4-(8-fluoro-5-methylchroman-6-yl)-6-methylindolin-5-yl)acetic acid] | 8 nM
5 | Cc1cc2c(c(-c3cc(F)c4c(c3C)CCCO4)c1[C@H](OC(C)(C)C)C(=O)O)CCN2C(=O)C1CCOC1 (stereo partly drawn) [Example 134, (2S)-2-(tert-Butoxy)-2-((4R)-4-(8-fluoro-5-methylchroman-6-yl)-6-methyl-1-(tetrahydrofuran-3-carbonyl)indolin-5-yl)acetic acid] | 453 nM
6 | Cc1cc2c(c(-c3cc(F)c4c(c3C)CCCO4)c1[C@H](OC(C)(C)C)C(=O)O)CCN2C(=O)c1cc(C(F)(F)F)ccc1Cl (atropisomer, axis not shown) [Example 154, (S)-2-(tert-Butoxy)-2-((R)-1-(2-chloro-5-(trifluoromethyl)benzoyl)-4-(8-fluoro-5-methylchroman-6-yl)-6-methylindolin-5-yl)acetic acid] | 52 nM
7 | Cc1ccc(-c2c3c(cc(C)c2[C@H](OC(C)(C)C)C(=O)O)N(C(=O)c2cccnc2)CC3)cc1 [Example 39, (S)-2-(tert-Butoxy)-2-(6-methyl-1-nicotinoyl-4-(p-tolyl)indolin-5-yl)acetic acid] | 27 nM
8 | Cc1ccc(-c2c3c(cc(C)c2[C@H](OC(C)(C)C)C(=O)O)N(S(=O)(=O)c2ccc(F)c(F)c2)CC3)cc1 [Example 35, (S)-2-(tert-Butoxy)-2-(1-((3,4-difluorophenyl)sulfonyl)-6-methyl-4-(p-tolyl)indolin-5-yl)acetic acid] | 9800 nM
9 | Cc1cc2c(c(-c3cc(F)c4c(c3C)CCCO4)c1[C@H](OC(C)(C)C)C(=O)O)CCN2C(=O)C1CC1 (atropisomer, axis not shown) [Example 132, (S)-2-(tert-Butoxy)-2-((R)-1-(cyclopropanecarbonyl)-4-(8-fluoro-5-methylchroman-6-yl)-6-methylindolin-5-yl)acetic acid] | 414 nM
10 | COc1ccc(C(=O)n2ccc3c(-c4cc(F)c5c(c4C)CCCO5)c([C@H](OC(C)(C)C)C(=O)O)c(C)cc32)cc1C [Example 202, (S)-2-(tert-Butoxy)-2-((R)-4-(8-Fluoro-5-methylchroman-6-yl)-1-(4-methoxy-3-methylbenzoyl)-6-methyl-1H-indol-5-yl)acetic acid] | 93 nM
11 | COc1cc(C(=O)N2CCc3c2cc(C)c([C@H](OC(C)(C)C)C(=O)O)c3-c2cc(F)c3c(c2C)CCCO3)ccc1C(F)(F)F (atropisomer, axis not shown) [Example 176, (S)-2-(tert-Butoxy)-2-((R)-4-(8-Fluoro-5-methylchroman-6-yl)-1-(3-methoxy-4-(trifluoromethyl)benzoyl)-6-methylindolin-5-yl)acetic acid] | 5 nM
12 | Cc1cc2c(c(-c3cc(F)c4c(c3C)CCCO4)c1[C@H](OC(C)(C)C)C(=O)O)CCN2C(=O)c1cc(C(F)(F)F)ccc1F (atropisomer, axis not shown) [Example 155, (S)-2-(tert-Butoxy)-2-((R)-1-(2-fluoro-5-(trifluoromethyl)benzoyl)-4-(8-fluoro-5-methylchroman-6-yl)-6-methylindolin-5-yl)acetic acid] | 72 nM
13 | Cc1ccc(-c2c3c(cc(C)c2[C@H](OC(C)(C)C)C(=O)O)N(C(=O)c2nc(C)sc2C)CC3)cc1 [Example 26, (S)-2-(tert-Butoxy)-2-(1-(2,5-dimethylthiazole-4-carbonyl)-6-methyl-4-(p-tolyl)indolin-5-yl)acetic acid] | 123 nM
14 | COc1ccc(C(=O)N2CCc3c2cc(C)c([C@H](OC(C)(C)C)C(=O)O)c3-c2cc(F)c3c(c2C)CCCO3)cc1C (atropisomer, axis not shown) [Example 102, (S)-2-(tert-Butoxy)-2-((R)-4-(8-fluoro-5-methylchroman-6-yl)-1-(4-methoxy-3-methylbenzoyl)-6-methylindolin-5-yl)acetic acid] | 2 nM
15 | COc1cc(C(=O)N2CCc3c2cc(C)c([C@H](OC(C)(C)C)C(=O)O)c3-c2cc(F)c3c(c2C)CCCO3)cc(F)c1F (atropisomer, axis not shown) [Example 174, (S)-2-(tert-Butoxy)-2-((R)-1-(3,4-Difluoro-5-methoxybenzoyl)-4-(8-fluoro-5-methylchroman-6-yl)-6-methylindolin-5-yl)acetic acid] | 6 nM
16 | COc1cc(C)cc(C(=O)N2CCc3c2cc(C)c([C@H](OC(C)(C)C)C(=O)O)c3-c2cc(F)c3c(c2C)CCCO3)c1 (atropisomer, axis not shown) [Example 89, (S)-2-(tert-Butoxy)-2-((R)-4-(8-fluoro-5-methylchroman-6-yl)-1-(3-methoxy-5-methylbenzoyl)-6-methylindolin-5-yl)acetic acid] | 3 nM
17 | Cc1cc2c(c(-c3cc(F)c4c(c3C)CCCO4)c1[C@H](OC(C)(C)C)C(=O)O)CCN2C(=O)c1cccc2c1OCO2 (atropisomer, axis not shown) [Example 114, (S)-2-((R)-1-(Benzo[d][1,3]dioxole-4-carbonyl)-4-(8-fluoro-5-methylchroman-6-yl)-6-methylindolin-5-yl)-2-(tert-butoxy)acetic acid] | 5 nM
18 | COc1ccc(OC)c(C(=O)N2CCc3c2cc(C)c([C@H](OC(C)(C)C)C(=O)O)c3-c2cc(F)c3c(c2C)CCCO3)c1 (atropisomer, axis not shown) [Example 106, (S)-2-(tert-Butoxy)-2-((R)-1-(2,5-dimethoxybenzoyl)-4-(8-fluoro-5-methylchroman-6-yl)-6-methylindolin-5-yl)acetic acid] | 11 nM
19 | Cc1ccc(-c2c3c(cc(C)c2[C@H](OC(C)(C)C)C(=O)O)N(C(=O)c2cccc(F)c2F)CC3)cc1 [Example 43, (S)-2-(tert-Butoxy)-2-(1-(2,3-difluorobenzoyl)-6-methyl-4-(p-tolyl)indolin-5-yl)acetic acid] | 10 nM
20 | COc1cccc(C(=O)N2CCc3c2cc(C)c([C@H](OC(C)(C)C)C(=O)O)c3-c2ccc(C)cc2)c1 [Example 16, (S)-2-(tert-Butoxy)-2-(1-(3-methoxybenzoyl)-6-methyl-4-(p-tolyl)indolin-5-yl)acetic acid] | 12 nM
21 | COc1cc(C(=O)N2CCc3c2cc(C)c([C@H](OC(C)(C)C)C(=O)O)c3-c2cc(F)c3c(c2C)CCCO3)ccc1Cl (atropisomer, axis not shown) [Example 123, (S)-2-(tert-Butoxy)-2-((R)-1-(4-chloro-3-methoxybenzoyl)-4-(8-fluoro-5-methylchroman-6-yl)-6-methylindolin-5-yl)acetic acid] | 3 nM
22 | Cc1cc2c(c(-c3cc(F)c4c(c3C)CCCO4)c1[C@H](OC(C)(C)C)C(=O)O)CCN2C(=O)c1ccc(C(F)(F)F)cc1Cl (atropisomer, axis not shown) [Example 144, (S)-2-(tert-Butoxy)-2-((R)-1-(2-chloro-4-(trifluoromethyl)benzoyl)-4-(8-fluoro-5-methylchroman-6-yl)-6-methylindolin-5-yl)acetic acid] | 26 nM
23 | COc1ccc(C(=O)N2CCc3c2cc(C)c([C@H](OC(C)(C)C)C(=O)O)c3-c2ccc3c(c2C)CCCO3)cc1OC (atropisomer, axis not shown) [Example 186, (S)-2-(tert-Butoxy)-2-((R)-1-(3,4-dimethoxybenzoyl)-6-methyl-4-(5-methylchroman-6-yl)indolin-5-yl)acetic acid] | 6 nM
24 | COc1cc(C(=O)N2CCc3c2cc(C)c([C@H](OC(C)(C)C)C(=O)O)c3-c2ccc3c(c2C)CCCO3)ccc1C (atropisomer, axis not shown) [Example 184, (S)-2-(tert-Butoxy)-2-((R)-1-(3-methoxy-4-methylbenzoyl)-6-methyl-4-(5-methylchroman-6-yl)indolin-5-yl)acetic acid] | 4 nM
25 | Cc1cncc(C(=O)N2CCc3c2cc(C)c([C@H](OC(C)(C)C)C(=O)O)c3-c2cc(F)c3c(c2C)CCCO3)c1 (atropisomer, axis not shown) [Example 81, (S)-2-(tert-Butoxy)-2-((R)-4-(8-fluoro-5-methylchroman-6-yl)-6-methyl-1-(5-methylnicotinoyl)indolin-5-yl)acetic acid] | 14 nM
26 | COc1cnccc1C(=O)N1CCc2c1cc(C)c([C@H](OC(C)(C)C)C(=O)O)c2-c1cc(F)c2c(c1C)CCCO2 (atropisomer, axis not shown) [Example 171, (S)-2-(tert-Butoxy)-2-((R)-4-(8-fluoro-5-methylchroman-6-yl)-1-(3-methoxyisonicotinoyl)-6-methylindolin-5-yl)acetic acid] | 14 nM
27 | Cc1ccc(-c2c3c(cc(C)c2C(OC(C)(C)C)C(=O)O)N(c2ccccc2)CCC3)cc1 (stereo not drawn) [Example 211, 2-(tert-Butoxy)-2-(7-methyl-1-phenyl-5-(p-tolyl)-1,2,3,4-tetrahydroquinolin-6-yl)acetic acid] | 10400 nM
